Measurements published in patent publication US6096314A, “Peptides and pharmaceutical compositions comprising them” (Yeda Research and Development Co. Ltd., priority 1994, dated 2000).

Legend:
anti-idiotypic T cells = assay: Treatment with p277 in IFA, proliferation of spleen cells to C9VDJ peptide (FIG. 9); type: in vivo; details: NOD female mice, 12 weeks old, treated in IFA subcutaneously; 2 or 5 weeks after treatment
Experimental: FIGS. 4A and B Spontaneous anti-idiotypic responses in naive female (FIG. 4A) and male (FIG. 4B) NOD mice. T cell responses to hsp60 (idiotype) and to the C9 clone (anti-idiotype) were measured in naive female and male NOD mice. Ten female and 10 male NOD mice were sacrificed at 4, 6, 8, 10, 13 and 21 week of age and their spleens were taken for a T cell proliferative assay. Spleen cells were tested at 200,000 cells/0.2 cc in microtiter wells for proliferative responses to either human hsp60 (5 μg/ml) or the C9 clone (20,000 cells/well irradiated at 5000 rad). The a proliferative response was measured by adding 3H-thymidine to the culture for the last 16 h of a 72 h stimulation. The incorporated 3H-thymidine was measured on a β-counter and the stimulation index (SI) was calculated as cpm incorporation in the presence of antigen/cpm incorporation in the absence of antigen. Individual mice were tested separately and the mean±SD for each time point was calculated.
NOD female mice, 12 weeks old, were immunized with p277 or p278 in IFA, […] per mouse subcutaneously, or left untreated 10 mice per group. At 2 or 5 weeks after treatment 5 mice of each group were sacrificed their spleens removed and tested individually in a proliferation assay to C9VDJ peptide 5 μg/ml, as described in FIG. 4.

NOD mice = details: references (3), (4); cited from earlier work

Sequence: VLGGGCALLRCIPALDSLTPANED [p277]
- Anti-C9 response (proliferation to C9VDJ peptide 5 μg/ml) (anti-idiotypic T cells): induces anti-C9 response
- Effect of vaccination on diabetes (NOD mice): prevent (3) or even reverse diabetes
